Literature values as cited in patent US20220151997A1, “USE OF EPALRESTAT IN PREPARATION OF PANCREATIC CANCER DRUGS AND METHOD FOR VERIFYING INHIBITION EFFECT OF EPALRESTAT ON SECRETION OF EXOSOMES FROM PANCREATIC CANCER CELLS” (Affiliated Hospital of Nantong University, priority 2019, published 2022).

System: prostate cancer cells
Details: by inhibiting the Ras signaling pathway and hnRNP H1 expression

## CCCC[C@@H](C)/C=C(C)/C=C(\C)C(=O)NC1=C[C@@](O)(/C=C/C=C/C=C/C(=O)NC2=C(O)CCC2=O)[C@@H]2O[C@@H]2C1=O [Manumycin A]
  production and secretion of the exosomes: inhibits
